The inhibition is the share of the control response that was lost under treatment. A word on the IC50: it is the concentration that gives 50% inhibition. Read a low IC50 as higher potency.

Where two headings read alike, the source gives them in different places.

The text below walks through data of patent publication US20170154163A1, “CLINICALLY RELEVANT SYNTHETIC LETHALITY BASED METHOD AND SYSTEM FOR CANCER PROGNOSIS AND THERAPY” (Ramot at Tel-Aviv University Ltd., priority 2015, published 2017).

The subject of assay [1] is Liv7k cell line (oral cancer). Description: Drug repurposing screen: growth inhibition of oral cancer cell line under normoxia and hypoxia (nuclei count). In kind it is cell-based. The note with it: Homo sapiens; for inhibition at 10 µM: 72 h, read-out: Growth Inhibition (GI). On the procedure: HPV-negative cell line derived from a T3N2b primary tumor of the tongue. The patient received no chemo/radiotherapy prior to tumor excision. Generously gifted by Professor Richard Shaw (Head and Neck Cancer Consultant, Liverpool, UK). Cells are maintained in keratinocyte SFM (Life Technologies), supplemented with 2 mM L-glutamine, 0.2 ng/ml epidermal growth factor (EGF) and 25 μg/ml bovine pituitary extract (BPE). The cell line was tested from mycoplasma contamination and authenticated by exome sequencing and CNV.
1397 compounds from the NIH Clinical Collection (Evotec, San Francisco, Calif.), LOPAC Pfizer (Sigma Aldrich), the Developmental Therapeutics Program (DTP)-Approved Oncology library and the FDA-Approved Drug Library (Selleck Chemicals) were tested at a single concentration of 10 μM. The libraries were received as 10 mM compounds in dimethyl sulfoxide (DMSO). Plates which conflicted with our plate layout were reformatted. The compounds were first diluted 1:50 in serum free media, and then further diluted 1:20 into to 96 well plates containing 5000 cells in 190 μl of keratinocyte SFM supplemented with 2 mM L-glutamine, 0.2 ng/ml EGF and 25 μg/ml BPE. 0.1% DMSO was used as a negative control, and staurosporine (Sigma Aldrich) at a concentration of 1 μM was used as a positive death control in all plates. Each drug was tested for 72 h under 21% and 0.1% O2. The cells were fixed using 4% formaldehyde after 72 h, and stained with DAPI dilactate (Sigma Aldrich). To assess viability, stained nuclei were counted using Perkin Elmer Operetta High Content Microscope.
An experimental screen was designed for testing whether the clinical SL-network can discriminate between cytotoxic and non-cytotoxic drugs, when considering a wide range of oncology and non-oncology drugs. Transcriptomic profiles of an oral cancer cell line under normoxia and hypoxia were obtained. Based on these profiles the network predicted the cell line response to 139 oncology and 531 non-oncology drugs in each condition. […]

For assay [2], the system named is pancreatic cancer cells (Capan-1). Description: Drug combination with olaparib, Combination Index by Chou-Talalay method (CompuSyn). In kind it is cell-based, human. To be noted: CI<0.9 denotes synergism. On the procedure: The experiment was conducted in triplicates.

For the compound `CN(C/C=C/C#CC(C)(C)C)Cc1cccc2ccccc12` [terbinafine], the values for the inhibition at 10 µM in assay [1] (hypoxia (0.1% O2)) and in assay [1] (normoxia (21% O2)) were 45.2% and 81.9%, respectively. Half-maximal inhibition in assay [1] (normoxia) (IC50) required 5.8 µM. As to `O=C(CCCCCCC(=O)Nc1ccccc1)NO` [VORINOSTAT, vorinostat], the “median Combination Index (CI)” value in assay [2] is recorded as 0.551.

Take `COc1cc([C@@H]2c3cc4c(cc3[C@@H](O[C@@H]3O[C@@H]5CO[C@@H](C)O[C@H]5[C@H](O)[C@H]3O)[C@H]3COC(=O)[C@H]23)OCO4)cc(OC)c1O` [Etoposide (VP16), etoposide]: the “median Combination Index (CI)” value in assay [2] is reported as 0.718.
